Assay results as given in PubChem BioAssay AID2060601 (Molecular Pharmacology Branch, DTP, NCI, 2025).

Tested on: 874868-142-R-J2-PDC complex spheroids, growth % test/control
Experiment: Anticancer human tumor 874868-142-R-J2-PDC patient-derived head and neck squamous carcinoma cell line growth inhibition [CLK]
Details: for IC50: curve of first compound; for viability, T/C: stronger effect = lower value
Description: A high-throughput screen of multi-cell type tumor spheroids was designed to identify active combinations of […] and targeted small molecules. Complex spheroids include a stromal component modeled by human endothelial cells (HUVEC) and fibroblasts modeled by human mesenchymal stem cells (MSCs). The concentration ranges selected for each drug and investigational agent were based upon clinically achievable concentrations if the clinical Cmax of the agent was known.
Compounds. The drugs and investigational agents: cirtuvivint (SM08502; NSC835563), CC-671 (NSC850746), vemurafenib (NSC761431), tapotoclax (NSC804041), sotorasib (NSC818433), adagrasib (NSC831453), MRTX-1133 (NSC836407), BAY2416964 (NSC825713), copanlisib (NSC816437), inavolisib (NSC800729), abemaciclib (NSC768073), osimertinib (NSC779217), entinostat (NSC756642), eltanexor (KPT-8602, NSC794443), venetoclax (NSC766270), ceralasertib (NSC777638), bortezomib (NSC756655), olaparib (NSC753686), talazoparib (NSC767125), alisertib (NSC759677), peposertib (NSC802822), gemcitabine (NSC613327), 5-fluorouracil (NSC19893), SN-38 (NSC673596), oxaliplatin (NSC266046), paclitaxel (NSC125973), and doxorubicin (NSC123127), were obtained from the National Cancer Institute (NCI) Developmental Therapeutics Program Chemical Repository. The FDA-approved anticancer drug set is available from the Developmental Therapeutics Program at https://dtp.cancer.gov/organization/dscb/obtaining/available plates.htm. […] The stock solutions were prepared in dimethyl sulfoxide (DMSO, Sigma-Aldrich, St. Louis, MO, cat. D2650), except for the platinum complexes which were prepared in saline (Quality Biological, Gaithersburg, MD, cat. 114-055-101), at 800-fold the tested concentration and stored at -70 degrees C prior to their use. All drugs and investigational agents were tested over a range starting from a high concentration at or near the clinical Cmax and decreasing in half-log increments. If the clinical Cmax for an agent had not been determined, the highest concentration tested was 10 microM.
Cell Culture. All cells were maintained in an incubator at 37 degrees C and 5% CO2 with 95% humidity. The PDC lines were cultured according to standard operating procedures established by the NCI PDMR. Briefly, all PDCs were thawed and cultured in Matrigel-coated flasks prepared with a working solution of 1X Ham's F-12 nutrient mix, without supplementation (Invitrogen, Waltham, MA, cat. 11765054), 100 U/mL penicillin-streptomycin (Invitrogen, cat. 15140122), and 2.5% Matrigel (Corning Inc., Corning, NY, cat. 354248) for the first three passages. The 947758-054-R-J2-PDC line was cultured in 6B/Colon 1A media, which includes advanced DMEM/F-12 (Thermo Fisher Scientific, cat. 12634028), 10 mM HEPES (Thermo Fisher Scientific, cat. 15630080), 1X GlutaMAX supplement (Thermo Fisher Scientific, cat. 35050061), 0.1 mg/mL primocin (InvivoGen, cat. ant-pm-2), 10% defined fetal bovine serum, heat inactivated (HyClone Laboratories Inc., cat. SH30070.03HI), 1.25 mM N-Acetyl-L-cysteine (Sigma-Aldrich, cat. A9165), 10 mM nicotinamide (Sigma-Aldrich, cat. N0636), 1X B-27 supplement (Thermo Fisher Scientific, cat. 17504044), 1X N-2 supplement (Thermo Fisher Scientific, cat. 17502048), and 10 microM Y-27632 dihydrochloride (Tocris Bioscience, cat. 1254). The 876862-298-R-J1-PDC was cultured in 6E media, which includes all 6B/Colon 1A media components plus 50% L-WRN conditioned media (ATCC, cat. CRL-3276), 50 ng/mL recombinant human EGF recombinant protein (hEGF; Thermo Fisher Scientific, cat. PHG0311), 10 ng/mL recombinant human fibroblast growth factor 10 (hGFG-10; PeproTech, cat. 100-26), 1 ng/mL recombinant human fibroblast growth factor 2 (hFGF-2; PeproTech, cat. 100-18B), and 1 µM prostaglandin E2 (PGE2; Tocris, cat. 2296). The 227483-062-R1-J1-PDC line was cultured in Panc media, containing all 6E components except hFGF-2, with the addition of 500 nM SB-431542 (Selleckchem, cat. S1067) and 10 nM gastrin (Tocris, cat. 3006). […]

[1] = second compound 0.0316 µM, first compound 0.0316 µM
[2] = second compound 0.0316 µM, first compound 0.1 µM
[3] = second compound 0.0316 µM, first compound 0.316 µM
[4] = second compound 0.0316 µM, first compound 1 µM
[5] = second compound 0.1 µM, first compound 0.0316 µM
[6] = second compound 0.1 µM, first compound 0.1 µM
[7] = second compound 0.1 µM, first compound 0.316 µM
[8] = second compound 0.1 µM, first compound 1 µM
[9] = second compound 0.316 µM, first compound 0.0316 µM
[10] = second compound 0.316 µM, first compound 0.1 µM
[11] = second compound 0.316 µM, first compound 0.316 µM
[12] = second compound 0.316 µM, first compound 1 µM
[13] = second compound 1 µM, first compound 0.0316 µM
[14] = second compound 1 µM, first compound 0.1 µM
[15] = second compound 1 µM, first compound 0.316 µM
[16] = second compound 1 µM, first compound 1 µM
[17] = second compound 3.16 µM, first compound 0.0316 µM
[18] = second compound 3.16 µM, first compound 0.1 µM
[19] = second compound 3.16 µM, first compound 0.316 µM
[20] = second compound 3.16 µM, first compound 1 µM
[21] = second compound 10 µM, first compound 0.0316 µM
[22] = second compound 10 µM, first compound 0.1 µM
[23] = second compound 10 µM, first compound 0.316 µM
[24] = second compound 10 µM, first compound 1 µM
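Note: spheroids exposed to the compounds for 7 days.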

## CC(CO)NC(=O)c1cc(-c2ccc(Cl)cc2)nn(-c2cnn(C)c2)c1=O (centres undefined) + CN1CCN(c2cc(C(=O)Nc3cc4cc(-c5cnn(C)c5)ccc4cn3)ccn2)CC1
Second compound 0.0316 µM
  IC50: > 10000 nM
Second compound 0.1 µM
  IC50: > 10000 nM
Second compound 0.316 µM
  IC50: < 31.6 nM
Second compound 1 µM
  IC50: < 31.6 nM
Second compound 3.16 µM
  IC50: < 31.6 nM
Second compound 10 µM
  IC50: < 31.6 nM
[1]
  viability, T/C: 105%
[2]
  viability, T/C: 99.2%
[3]
  viability, T/C: 82.4%
[4]
  viability, T/C: 92.8%
Second compound 0.0316 µM, first compound 3.16 µM
  viability, T/C: 93%
Second compound 0.0316 µM, first compound 10 µM
  viability, T/C: 83.8%
[5]
  viability, T/C: 76.1%
[6]
  viability, T/C: 72.2%
[7]
  viability, T/C: 65.8%
[8]
  viability, T/C: 67.9%
Second compound 0.1 µM, first compound 3.16 µM
  viability, T/C: 68.5%
Second compound 0.1 µM, first compound 10 µM
  viability, T/C: 77.2%
[9]
  viability, T/C: 19.4%
[10]
  viability, T/C: 24.8%
[11]
  viability, T/C: 20.6%
[12]
  viability, T/C: 19.1%
Second compound 0.316 µM, first compound 3.16 µM
  viability, T/C: 20.2%
Second compound 0.316 µM, first compound 10 µM
  viability, T/C: 29.1%
[13]
  viability, T/C: 0.42%
[14]
  viability, T/C: 5.08%
[15]
  viability, T/C: 2.66%
[16]
  viability, T/C: 0.31%
Second compound 1 µM, first compound 3.16 µM
  viability, T/C: 0.63%
Second compound 1 µM, first compound 10 µM
  viability, T/C: 1.19%
[17]
  viability, T/C: 0.31%
[18]
  viability, T/C: 0.77%
[19]
  viability, T/C: 0.29%
[20]
  viability, T/C: 0.32%
Second compound 3.16 µM, first compound 3.16 µM
  viability, T/C: 3.04%
Second compound 3.16 µM, first compound 10 µM
  viability, T/C: 2.75%
[21]
  viability, T/C: 0.18%
[22]
  viability, T/C: 0.21%
[23]
  viability, T/C: 2.19%
[24]
  viability, T/C: 0.22%
Second compound 10 µM, first compound 3.16 µM
  viability, T/C: 3.03%
Second compound 10 µM, first compound 10 µM
  viability, T/C: 0.28%

## COc1c(OCCCN2CCOCC2)ccc2c3n(c(=NC(=O)c4cnc(N)nc4)nc12)CCN3 + CN1CCN(c2cc(C(=O)Nc3cc4cc(-c5cnn(C)c5)ccc4cn3)ccn2)CC1
Second compound 0.0316 µM
  IC50: 7.48 nM
Second compound 0.1 µM
  IC50: 5.7 nM
Second compound 0.316 µM
  IC50: < 3.16 nM
Second compound 1 µM
  IC50: < 3.16 nM
Second compound 3.16 µM
  IC50: < 3.16 nM
Second compound 10 µM
  IC50: < 3.16 nM
Second compound 0.0316 µM, first compound 0.00316 µM
  viability, T/C: 66.7%
Second compound 0.0316 µM, first compound 0.01 µM
  viability, T/C: 44.8%
[1]
  viability, T/C: 21.2%
[2]
  viability, T/C: 11.6%
[3]
  viability, T/C: 5.06%
[4]
  viability, T/C: 3.88%
Second compound 0.1 µM, first compound 0.00316 µM
  viability, T/C: 57.3%
Second compound 0.1 µM, first compound 0.01 µM
  viability, T/C: 42.7%
[5]
  viability, T/C: 23.6%
[6]
  viability, T/C: 9.84%
[7]
  viability, T/C: 5.07%
[8]
  viability, T/C: 5.77%
Second compound 0.316 µM, first compound 0.00316 µM
  viability, T/C: 19.1%
Second compound 0.316 µM, first compound 0.01 µM
  viability, T/C: 18.6%
[9]
  viability, T/C: 10.7%
[10]
  viability, T/C: 4.09%
[11]
  viability, T/C: 3.08%
[12]
  viability, T/C: 1.68%
Second compound 1 µM, first compound 0.00316 µM
  viability, T/C: 0.4%
Second compound 1 µM, first compound 0.01 µM
  viability, T/C: 0.24%
[13]
  viability, T/C: 0.24%
[14]
  viability, T/C: 0.07%
[15]
  viability, T/C: 0.34%
[16]
  viability, T/C: 0.22%
Second compound 3.16 µM, first compound 0.00316 µM
  viability, T/C: 0.17%
Second compound 3.16 µM, first compound 0.01 µM
  viability, T/C: 0.16%
[17]
  viability, T/C: 0.17%
[18]
  viability, T/C: 0.36%
[19]
  viability, T/C: 0.16%
[20]
  viability, T/C: 0.19%
Second compound 10 µM, first compound 0.00316 µM
  viability, T/C: 0.07%
Second compound 10 µM, first compound 0.01 µM
  viability, T/C: 0.15%
[21]
  viability, T/C: 1.27%
[22]
  viability, T/C: 0.4%
[23]
  viability, T/C: 0.14%
[24]
  viability, T/C: 0.18%
